This is an account of results in PMC6361841, “Repurposing of Drugs as Novel Influenza Inhibitors From Clinical Gene Expression Infection Signatures” (Frontiers in Immunology, 2019).

SMILES strings stand for the structures.

For test [1], the system named is A/Lyon/969/2009 H275Y (H1N1). It counts as cell-based, influenza virus.
Test [2] deals with influenza A/Lyon/969/09 (H1N1)pdm09 virus. It counts as cell-based. The conditions noted are these: basolateral medium replaced with fresh medium without drugs.

Molecule `CCNCC(O)c1cccc(O)c1` (stereo not drawn) [Etilefrine] yielded a Viral titer in test [1] of 2.8 log TCID50/ml.
In test [1], `COc1ccc([C@@H]2Sc3ccccc3N(CCN(C)C)C(=O)[C@@H]2OC(C)=O)cc1` [Diltiazem] registered a Viral titer of 2.8 log TCID50/ml. Besides, the “Reversibility of inhibitory and protective properties” value in test [2] is “progressively reversible”.
